Assay results: patent US4097596A, “Inhalation therapy for relieving bronchial spasm using quaternary salts of promethazine” (American Home Products Corporation, priority 1976, dated 1978)
Where “and” joins values, the source holds several entries; their conditions need not be identical. Equal entries are not always repeated. Structures can show the parent of a compound that is named as a salt. Where two headings read alike, the source gives them in different places.

What was measured:
acetylcholine = assay: Inhibition of acetylcholine-induced bronchoconstriction by aerosol, anesthetized guinea pigs; type: in vivo
Method: (§1) Anesthetized (Pentobarbitol-urethane) guinea pigs were artificially respired at a constant positive air pressure (Starling miniature pump) and changes in tidal air during inspiration were recorded, according to the method of Rosenthale et al., Int. Arch. Pharmacol., 172, 91 (1968). The bronchoconstrictor agents acetylcholine and histamine were administered intravenously at doses of 1 to 30 μg/kg. depending on each animal's sensitivity to these compounds, and control responses to acetylcholine and histamine were thus established. Bronchoconstrictor agents raise the resistance of the lungs to inflation thereby decreasing the tidal air flow. A solution of the test compound was then administered by aerosol, in physiological saline or distilled water, and the animals were then challenged again with acetylcholine or histamine and the degree of inhibition of bronchoconstriction by the test compound was thus determined.

histamine = assay: Inhibition of histamine-induced bronchoconstriction by aerosol, anesthetized guinea pigs; type: in vivo
Method: as §1

[1] = system: cholinergic-induced bronchoconstriction; assay: Effect of drugs on cholinergic-induced bronchoconstriction in the cat (aerosol); type: in vivo; settings: as cation, mean ± S.E.
Method: Cats of either sex were anesthetized and respiration was arrested by the administration of an intravenous infusion of 1 mg/ml/min of succinylcholine chloride. The animals were artificially respired with a Harvard pump. A neostigmine methylsulfate solution (0.1 mg/ml) was infused intravenously at a rate of 1 ml/min until maximal or complete bronchoconstriction occurred, but the experiment was not begun until a stable state was attained. The respiratory flow was measured with a Fleisch pneumotachograph and a differential pressure transducer. Transpulmonary pressure was measured with a differential pressure transducer bridged between the trachea and the intrapleural space. Pulmonary airway resistance and compliance was measured by a modification of the Mead & Whittenberger electronic subtraction method using the Hewlett-Packard respiratory pre-amplifier or the isovolumetric method using the Buxco Pulmonary mechanics computer [Rosenthale et al., J. Pharmacol. Exp. Ther., 178, 541, (1971)].
Drugs were administered as cation as an aerosol by means of a Monaghan ultrasonic nebulizer. The dosage was varied by adjusting the concentration of the solution. Activity was measured by the ability of the drug to reverse the increased airway resistance and decreased compliance characteristic of cholinergic stimulation induced by succinylcholine and neostigmine.

[2] = cited from earlier work
smooth muscle = settings: cited from earlier work
[3] = 1.5 μg as cation, distilled water
[4] = 15.0 μg as cation, distilled water
[5] = 0.1 μg, listed as Promethazine methyl chloride
[6] = 1.0 μg, listed as Promethazine methyl chloride
[7] = 10.0 μg, listed as Promethazine methyl chloride
[8] = 100.0 μg, listed as Promethazine methyl chloride
[9] = 0.15 μg as cation, distilled water
[10] = 1.5 μg as cation, physiological saline
[11] = 15.0 μg as cation, physiological saline
[12] = 0.1 μg, listed as Promethazine methyl iodide
[13] = 1.0 μg, listed as Promethazine methyl iodide
[14] = 10.0 μg, listed as Promethazine methyl iodide
[15] = 100.0 μg, listed as Promethazine methyl iodide

SMILES | Mean % Inhibition (±S.E.) vs. Acetylcholine (acetylcholine; [3]) | Mean % Inhibition (±S.E.) vs. Acetylcholine (acetylcholine; [4]) | Mean % Inhibition (±S.E.) vs. Histamine (histamine; [4]) | Mean % Inhibition (±S.E.) vs. Acetylcholine (acetylcholine; [9]) | Mean % Inhibition (±S.E.) vs. Acetylcholine (acetylcholine; [11]) | Mean % Inhibition (±S.E.) vs. Histamine (histamine; [11]) | other results
CC(CN1c2ccccc2Sc2ccccc21)[N+](C)(C)C (racemic) [CH3 / Cl, dl-Trimethyl[1-Methyl-2-(Phenothiazin-10-yl)Ethyl]Ammonium Chloride] | 24.25 (10.21) % and 26.67 (6.77) % | 86.3 (10.37) % and 100 (0) % | 98.2 (1.8) % | – | – | – | Pulmonary Compliance % Protection [1, 5]: 6.8±4.1%; Pulmonary Resistance % Protection [1, 5]: 8.8±7.7%; Duration 50% (time to return to 50% of control constricted state) ([1]; 0.1 μg, methyl chloride done in 3 cats, listed as Promethazine methyl chloride): 2.7 ± 1.5 min; Duration 50% (time to return to 50% of control constricted state) [1, 6]: > 10 min; Pulmonary Compliance % Protection [1, 6]: 7.8±4.1%; Pulmonary Resistance % Protection [1, 6]: 17.2±2.8%; Duration 50% (time to return to 50% of control constricted state) [1, 7]: 21.0 ± 4.0 min; Pulmonary Compliance % Protection [1, 7]: 71.4±51.1%; Pulmonary Resistance % Protection [1, 7]: 50.0±4.6%; Duration 50% (time to return to 50% of control constricted state) [1, 8]: > 60 min; Pulmonary Compliance % Protection [1, 8]: 60.8±25.7%; Pulmonary Resistance % Protection [1, 8]: 72.8±2.1%
CCC[N+](C)(C)C(C)CN1c2ccccc2Sc2ccccc21 (racemic) [n-C3 H7 / I, dl-N,N,α-Trimethyl-N-n-Propyl-10H-Phenothiazine-10-Ethanaminium Iodide] | 43.75 (6.51) % | 84.0 (6.56) % | 68.0 (8.14) % | 5.5 (3.20) % | – | – | –
Cn1c(=O)c2[nH]cnc2n(C)c1=O [aminophylline] | – | – | – | – | – | – | bronchodilator activity ([2]; aerosol): inactive as a bronchodilator aerosol; bronchial smooth muscle relaxation (smooth muscle; in vitro or by injection in vivo): can relax bronchial smooth muscle in vitro or by injection in vivo
CC(CN1c2ccccc2Sc2ccccc21)[N+](C)(C)C (racemic) [CH3 / I, dl-trimethyl[1-methyl-2-(phenothiazin-10-yl)ethyl]ammonium iodide] | 47.0 (7.59) % | 98.66 (1.33) % | 98.0 (1.0) % | 20.0 (13.38) % | 99.0 (1.0) % and 99.3 (0.67) % | 97.5% and 98.66 (1.33) % | Mean % Inhibition (±S.E.) vs. Acetylcholine (acetylcholine; [10]): 62.38 (4.67) % and 62.75 (11.89) %; Mean % Inhibition (±S.E.) vs. Histamine (histamine; 0.15 μg as cation, physiological saline): 15.33 (6.96) %; Mean % Inhibition (±S.E.) vs. Histamine (histamine; [10]): 49.0 (11.14) %; Pulmonary Compliance % Protection [1, 12]: 5.8±3.6%; Pulmonary Resistance % Protection [1, 12]: 14.3±1.1%; Duration 50% (time to return to 50% of control constricted state) ([1]; 0.1 μg, methyl chloride done in 3 cats, listed as Promethazine methyl iodide): 6.7 ± 3.2 min; Duration 50% (time to return to 50% of control constricted state) [1, 13]: 11.3 ± 2.0 min; Pulmonary Compliance % Protection [1, 13]: 3.7± .52%; Pulmonary Resistance % Protection [1, 13]: 39.4±2.1%; Duration 50% (time to return to 50% of control constricted state) [1, 14]: 21.2 ± 6.8 min; Pulmonary Compliance % Protection [1, 14]: 15.5±6.0%; Pulmonary Resistance % Protection [1, 14]: 48.5±3.3%; Duration 50% (time to return to 50% of control constricted state) [1, 15]: 46.1 ± 9.7 min; Pulmonary Compliance % Protection [1, 15]: 26.4±4.1%; Pulmonary Resistance % Protection [1, 15]: 78.1±4.4%
CCCC[N+](C)(C)C(C)CN1c2ccccc2Sc2ccccc21 (racemic) [n-C4 H9 / I, dl-N-n-Butyl,N,N,α-Trimethyl-10H-Phenothiazine-10-Ethanaminium Iodide] | 39.25 (2.53) % | 52.0 (6.35) % | 66.33 (2.96) % | 0% | – | – | –
CC(CN1c2ccccc2Sc2ccccc21)[N+](C)(C)C (stereo not drawn) [CH"3 / I, l-Trimethyl[1-Methyl-2-(Phenothiazine-10-yl)Ethyl]Ammonium Iodide] | – | – | – | – | 81% | 95 (4.66) % | –
CN[C@@H](C)[C@H](O)c1ccccc1 [ephedrine] | – | – | – | – | – | – | bronchodilator activity ([2]; aerosol): not by aerosol; bronchodilator activity ([2]; oral): orally active bronchodilator; smooth muscle relaxation (smooth muscle): smooth muscle relaxant
CC(CN1c2ccccc2Sc2ccccc21)[N+](C)(C)C (racemic) [CH3 / CH3 SO4, dl-Trimethyl[1-Methyl-2-(Phenothiazine-10-yl)Ethyl]Ammonium Methyl Sulfate] | – | – | – | – | 86% | 98% | –
CC(CN1c2ccccc2Sc2ccccc21)[N+](C)(C)C (stereo not drawn) [CH'3 / I, d-trimethyl[1-methyl-2-(phenothiazin-10-yl)ethyl]ammonium iodide] | – | – | – | – | 97% | 82% | –
CNC[C@H](O)c1ccc(O)c(O)c1 [epinephrine] | – | – | – | – | – | – | smooth muscle relaxation (smooth muscle): smooth muscle relaxant
CC(CN1c2ccccc2Sc2ccccc21)[N+](C)(C)C (racemic) [CH3 / Br, dl-Trimethyl[1-Methyl-2-(Phenothiazin-10-yl)Ethyl]Ammonium Bromide] | 38.75 (9.26) % | 99.0 (1.0) % | – | 0% | – | – | –
CC[N+](C)(C)C(C)CN1c2ccccc2Sc2ccccc21 (racemic) [C2 H 5 / I, dl-N-Ethyl-N,N,α-Trimethyl-10H-Phenothiazine-10-Ethanaminium Iodide] | 62.75 (10.63) % | 98.66 (1.33) % | 78.67 (8.74) % | 20.0 (7.70) % | – | – | –
CC(CN1c2ccccc2Sc2ccccc21)[N+](C)(C)C (racemic) [CH3 / NO3, dl-Trimethyl[1-Methyl-2-(Phenothiazin-10-yl)Ethyl]Ammonium Nitrate] | 43.5 (10.33) % | 100 (0) % | – | 12.0 (6.26) % | – | – | –
